# Measured values published in publication PMC12040169 (PLOS Biology, 2025).
# Assay: in vitro
# Settings: human, hela cells, % viability
row,Structure (SMILES),"viability at 28.5 h, 10 µM"
1,CC(=O)N1CCN(Cc2nc3cc(NC(=O)Cn4nc(C)c5ccccc5c4=O)ccc3n2C)CC1 [CBK267989],87.8%
2,COc1ccc(C)cc1S(=O)(=O)N(CC(=O)Nc1ccccc1C)c1ccc(Cl)cc1 [CBK267995],90.1%
3,COc1cc(OC)cc(C(=O)OCc2ccc(F)cc2)c1 [CBK267996],95.6%
4,O=C(CC1C(=O)NCCN1C(=S)Nc1ccccc1)Nc1ccc2c(c1)OCCO2 (stereo not drawn) [CBK267999],95.9%
5,CCC(NC(=O)Nc1ccccc1C(=O)O)(C(F)(F)F)C(F)(F)F [CBK268000],93.2%
6,COc1ccc(C(=O)Nc2ccccc2N2CCN(C)CC2)cc1Cl [CBK268001],90.5%
7,CC(Oc1ccc(-c2ccccc2)cc1)C(=O)Nc1ccc2c(c1)OCCO2 (stereo not drawn) [CBK268002],92.3%
8,Cc1cc(SCC(=O)Nc2cccc3ccccc23)nc2c(C)cccc12 [CBK268005],92.2%
9,O=C(CSc1nnc(-c2ccco2)o1)Nc1cccc2nsnc12 [CBK268006],93.2%
10,O=C(O)C1CCCCC1C(=O)Nc1ccc(S(=O)(=O)N2CCOCC2)cc1 (stereo not drawn) [CBK268010],104%
11,COCCCn1c(CCC(=O)O)ccc1-c1ccc(Br)cc1 [CBK268015],97.6%
12,Cc1cc(C)nc(Nc2n[nH]c(COc3ccccc3)n2)n1 [CBK268016],93.2%
13,O=C(Nc1ccc(S(=O)(=O)N2CCCCCC2)cc1)c1ccc(NS(=O)(=O)c2ccccc2)cc1 [CBK268018],90.4%
14,CC(NC(=O)Nc1ccccc1O)(C(F)(F)F)C(F)(F)F [CBK268019],101%
15,O=C(O)c1ccccc1-c1nc(-c2ccccc2F)no1 [CBK268022],100%
16,CC(Oc1cccc(Br)c1)C(=O)NCCC(=O)O (stereo not drawn) [CBK268024],90.9%
17,O=C(Cn1nnc(-c2ccc3c(c2)OCO3)n1)Nc1ccccc1C(=O)O [CBK268025],101%
18,O=C(O)c1cccc(NC(=O)c2cc(-n3cnnc3)ccc2Cl)c1 [CBK268026],83%
19,CCn1cc(C(=O)O)c(=O)c2cc(F)c(N3CCN(C(=S)Nc4ccc5c(c4)OCO5)CC3)cc21 [CBK268027],83.1%
20,CC(CNC(=O)C1CCCCC1C(=O)O)c1ccccc1 (stereo not drawn) [CBK268028],97.1%
21,O=C(O)c1cccc(CSc2nnc(Cc3ccccc3)[nH]2)c1 [CBK268029],94.1%
22,CCNC(=O)N1C(CC(=O)OCC)C(=O)NC2CCCCC21 (stereo not drawn) [CBK268030],116%

row,Structure (SMILES),"viability at 28.5 h, 10 µM"
1,CC(=O)Nc1ccc(C(=O)CSc2nc(-c3ccccc3)cs2)cc1 [CBK268038],101%
2,Cc1nnc(Nc2ccc3c(c2)nc2n3CCN(C3CCCCC3)C2)c2ccccc12 [CBK268042],90.9%
3,Cc1nnc(SCC(=O)NCCc2ccccc2)nc1O [CBK268045],92%
4,Cc1cc(NC(=O)C(=O)NCCCN2CCOCC2)ccc1Br [CBK268046],94.7%
5,CCOc1cc(C)c(Cl)cc1S(=O)(=O)NCc1ccccn1 [CBK268047],108%
6,Cc1ccc(Cl)cc1N=C(N)N=C(N)N [CBK268049],98.8%
7,Cc1cc(=O)oc2cc(OC(C)C(=O)Nc3sc4c(c3C(N)=O)CCCC4)ccc12 (stereo not drawn) [CBK268050],94.6%
8,O=c1[nH]c(/C=C/c2cc(Br)ccc2OCc2cccc3ccccc23)c([N+](=O)[O-])c(=O)[nH]1 [CBK268052],86.3%
9,N#Cc1c(NC(=O)Cn2cnc3sc(-c4ccccc4)cc3c2=O)sc2c1CCC2 [CBK268053],95.2%
10,Cc1ccc(C(=O)Nc2ccc(S(=O)(=O)N3CCCC3)cc2)cc1S(=O)(=O)Nc1ccccc1 [CBK268054],47.4%
11,O=C(O)c1ccc(-c2ccc(/C=C/c3[nH]c(=O)[nH]c(=O)c3[N+](=O)[O-])o2)cc1 [CBK268055],105%
12,Cc1[nH]c2ccccc2c1C(=O)CSc1n[nH]c(N)n1 [CBK268056],98.3%
13,O=C(CN1CCCC1=O)NC1(C(F)(F)F)NC(=O)N(c2ccc(F)cc2)C1=O (stereo not drawn) [CBK268057],98.1%
14,O=C(CN1C(=O)C2CCC(c3ccccc3)CC2C1=O)Nc1cccc2ccccc12 (stereo not drawn) [CBK268061],86%
15,CC1CCN(c2nnnc3c2sc2nc(N4CCOCC4)c4c(c23)CC(C)(C)SC4)CC1 [CBK268062],90.4%
16,COc1ccc(NC(=O)CSc2nc(N)n[nH]2)cc1Cl [CBK268065],108%
17,O=[N+]([O-])c1ccc(S(=O)(=O)NCCSCc2cccc(Cl)c2)cc1 [CBK268066],107%
18,Cc1cccc(NS(=O)(=O)c2ccc(OCC(=O)Nc3ccc4c(c3)OCCO4)cc2)c1 [CBK268068],111%
19,CCC1CCCCN1S(=O)(=O)c1ccc(NC(=O)Cn2c(=O)oc3ccccc32)cc1 (stereo not drawn) [CBK268069],89.2%
20,CNc1ccc(C(O)(C(F)(F)F)C(F)(F)F)cc1C(O)(C(F)(F)F)C(F)(F)F [CBK268070],96.6%
21,CN1CCN(c2ccccc2NC(=O)c2ccc3c(c2)OCCO3)CC1 [CBK268072],101%
22,O=[N+]([O-])c1ccc(N2CCNCC2)cc1NCc1ccccn1 [CBK268074],122%

row,Structure (SMILES),"viability at 28.5 h, 10 µM"
1,Cc1cc(C(F)(F)F)nc(SCC(=O)N2c3ccccc3Sc3ccccc32)n1 [CBK268078],90.8%
2,CN1CCN(C(=O)CN(c2ccccc2)S(=O)(=O)N(C)C)CC1 [CBK268079],86.6%
3,CCOc1cc(C)c(C(C)C)cc1S(=O)(=O)NCc1ccccn1 [CBK268080],104%
4,O=C(O)c1cc(Nc2nc(N3CCOCC3)nc(N3CCOCC3)n2)ccc1Cl [CBK268081],97.5%
5,CCC(CO)NCc1ccc(-c2ccccc2)cc1 (stereo not drawn) [CBK268082C],97.6%
6,c1cc(-c2nnn[nH]2)ccc1OCc1nnn[nH]1 [CBK268083],93.1%
7,Cc1nn2c(CN(C(=O)c3ccccc3)c3ccccc3)nnc2c2ccccc12 [CBK268084],87.7%
8,Cc1nnc(SCc2ccc(CSc3nnc(C)c(=O)[nH]3)cc2)[nH]c1=O [CBK268085],86.1%
9,Cc1cc(Br)ccc1NC(=O)CSc1nnc(-c2ccccc2O)n1-c1ccccc1 [CBK268086],90.7%
10,c1ccc2c(c1)nc1n2CN(Cc2ccc3c(c2)OCO3)CN1 [CBK268087],99.1%
11,CCc1ccc(C2=CC(c3cccc(C)c3)n3nnnc3N2)cc1 (stereo not drawn) [CBK268095],88.6%
12,O=C(CSc1nnc(-c2ccccc2O)n1-c1ccccc1)N1CCc2ccccc21 [CBK268097],100%
13,O=C(CSc1nc2ccccc2c2nc3ccccc3n12)Nc1ccc(Cl)cc1F [CBK268098],115%
14,CC(=O)Nc1ccc(S(=O)(=O)NC2(C(F)(F)F)NC(=O)N(C3CCCC3)C2=O)cc1 (stereo not drawn) [CBK268100],84.6%
15,COc1ccc(S(=O)(=O)N(C)CC(=O)N2CCN(C)CC2)cc1C [CBK268105],100%
16,O=C(O)c1ccc(NC(=O)c2cnccn2)cc1 [CBK268110],94%
17,Cc1cc(C)nc(NC(=O)C(C)Oc2ccc(Cl)cc2C)n1 (stereo not drawn) [CBK268111],94.8%
18,Cc1scc(C(=O)NN2CCN(C)CC2)c1-c1ccccc1 [CBK268115],93%
19,COC(=O)c1c(NC(=O)c2cc(C)on2)sc(C(=O)Nc2ccc(Cl)cc2)c1C [CBK268116],89.7%
20,COc1ccc2c(Cl)c(C(=O)NCCc3ccc(S(N)(=O)=O)cc3)sc2c1 [CBK268120],104%
21,COc1cccc(CN2CCN(C(=O)C3(C)CC3(Cl)Cl)CC2)c1 (stereo not drawn) [CBK268121],96.7%
22,Cc1noc(C)c1C(=O)Nc1ccc(N2CCOCC2)c2nonc12 [CBK268125],94.7%

row,Structure (SMILES),"viability at 28.5 h, 10 µM"
1,S=C(NCCN1CCCCC1)NCC1CCCO1 (stereo not drawn) [CBK268129],107%
2,Cc1cc(C(=O)NCCc2ccc(S(N)(=O)=O)cc2)no1 [CBK268130],99.3%
3,Cc1cc(C(=O)N(Cc2ccccc2)c2ccccc2)no1 [CBK268131],94.2%
4,Cc1cc(OCC(=O)NN2CCN(C)CC2)ccc1[N+](=O)[O-] [CBK268136],99.8%
5,O=C(O)C1C2CCC(O2)C1C(=O)Nc1ccc(S(=O)(=O)N2CCc3ccccc32)cc1 (stereo not drawn) [CBK268137],93.1%
6,COc1ccc(C(=O)Nc2ccc(S(=O)(=O)N3CCN(C)CC3)cc2)cc1[N+](=O)[O-] [CBK268140],97%
7,Cc1noc(C)c1C(=O)NCCc1ccc(S(N)(=O)=O)cc1 [CBK268143],104%
8,CCc1ccc(C(=O)NCCCN2CCOCC2)cc1 [CBK268144],104%
9,Cc1cc(C(=O)NCCCn2ccnc2)no1 [CBK268145],103%
10,COC(=O)c1sccc1NC(=O)Cc1ccccc1[N+](=O)[O-] [CBK268146],98.7%
11,Cc1ccc(OCC(=O)Nc2sc3c(c2C(N)=O)CCCCC3)c([N+](=O)[O-])c1 [CBK268148],101%
12,O=C(COc1ccccc1)Nc1ccc(N2CCOCC2)c2nonc12 [CBK268149],87.9%
13,CCC(Oc1cc(C)ccc1Cl)C(=O)Nc1sccc1C(N)=O (stereo not drawn) [CBK268152],105%
14,Cc1occc1C(=O)NC(C)c1ccc2c(c1)OCO2 (stereo not drawn) [CBK268153],105%
15,O=C(O)COCC(=O)N1CCN(c2ccccc2Cl)CC1 [CBK268155],108%
16,COc1cc(NS(=O)(=O)c2ccc(NC(=O)c3cccnc3)cc2)ncn1 [CBK268156],93%
17,Cc1cc(NS(=O)(=O)c2ccc(NC(=S)NC3CCCCC3)cc2)no1 [CBK268157],91.3%
18,Cc1onc(-c2ccccc2)c1C(=O)Nc1cccc(S(=O)(=O)N2CCOCC2)c1 [CBK268159],101%
19,Cc1cc(NS(=O)(=O)c2ccc(NC(=S)NCC3CCCO3)cc2)no1 (stereo not drawn) [CBK268160],101%
20,CN1CCN(S(=O)(=O)c2ccc(NC(=O)Cc3ccc([N+](=O)[O-])cc3)cc2)CC1 [CBK268161],121%
21,Cc1cc(C(=O)Nc2ccc(S(=O)(=O)Nc3onc(C)c3C)cc2)no1 [CBK268166],95.3%
